Tests used:
BMRPA1 cells = experiment: NNK exposure of BMRPA1 cells, morphology; assay type: cell-based, rat; conditions: one 16 hour exposure
Experimental: NNK Exposures: All preparations of the carcinogen-containing media were made in a separate laboratory within a NCI-designed and certified chemical hood using prescribed protective measures. NNK (American Health Foundation, N.Y.) was prepared as a stock solution of 10 mg NNK in PBS and added to FBS-free cRPMI to make final concentrations of 100, 50, 10, 5, and 1 μg/ml. BMRPA1 cells at passage 36 (p36) were seeded at 10^5/60 mm TCDs and allowed to grow for 6 d. At this time the medium was removed, and the cells were washed 2× with prewarmed (37° C.), FBS-free cRPMI before they were treated with FBS-free cRPMI (4 ml/TCD) containing the different concentrations of NNK. A 6th set of TCDs containing BMRPA1 cells was incubated in FBS-free cRPMI without NNK and was used as controls. The eight TCDs used for each of the six sets of different culture conditions were returned to the 37° C. and 95% air-5% CO2 incubator. After 16 h, the NNK-containing medium was removed from all TCDs and the cells were washed 3× with PBS followed by addition of fresh cRPMI-10% FBS (4 ml/TCD), and the incubation continued. Control cultures without NNK were processed in parallel. The cells were fed every 2 d by replacing ½ of the spent medium with fresh cRPMI-10% FBS. At full confluency the cells were collected from all TCDs, the cells in each group were pooled, and passaged at 2×10^4 into fresh TCDs.

Experimental for BMRPA1 antigens: Immunosubtractive Hyperimmunization Protocol (ISHIP): A mixture of live (10^6) and paraformaldehyde fixed and washed (10^6) cells was used for each immunization intraperitoneally (ip). Six female Balb/c mice (age˜12 wks) (Harlan-Sprague Dawley Labs, St. Louis) were used: two mice were injected 4× during standard immunizations with BMRPA1 cells. […] The other two immunosuppressed mice were injected weekly three more times with transformed BMRPA1.NNK cells, and a week later the mice were hyperimmunized with 5 additional injections of transformed BMRPA1.NNK cells in the 10 days preceding fusion (ISHIP mice). Sera were obtained from all mice within a week after the indicated number of immunizations.
Cell-Enzyme ImmunoAssay (Cell-EIA): BMRPA1 and BMRPA1.NNK cells were seeded in TCPs (96-wells) at 3×10^4/well with 0.1 mL cRPMI-10% FBS. The cells were allowed to adhere for 24 h, air dried, and stored under vacuum at RT. The cells were then rehydrated with PBS-1% BSA, followed by addition of either hybridoma supernatants or two fold serial dilutions of mouse sera to each well for 45 min at room temperature (RT). After washing with PBS-BSA, HRP-GαMIgG (1:100 in PBS-1% BSA) was added to each well for 45 min at RT. […] The substrate color development was assessed at OD490nm with a microplate reader (Bio-Rad 3550). […]

Row | Compound | Phenotypical changes of neoplastic transformation (BMRPA1 cells; 1 μg/ml NNK) | Cytotoxic changes (BMRPA1 cells; 5 and 1 μg NNK/mL) | Appearance of phenotypical changes indicative of neoplastic transformation (BMRPA1 cells; 100, 50, 10 μg NNK/ml) | Cytotoxic changes (BMRPA1 cells; larger concentrations of NNK (100, 50, 10 μg NNK/mL), serum free medium) | Immunosuppression of antibody titer to BMRPA1 cells (Cell-EIA with sera) (BMRPA1 antigens; 3 injections of BMRPA1 cells, then cyclophosphamide i.p. for 5 days, 60 μg/day/g body weight) | Staining of rat pancreatic tissue by sera of BMRPA1 immunized, cyclophosphamide-treated mice (BMRPA1 antigens; immunohistochemistry on rat pancreas)
1 | CN(CCCC(=O)c1cccnc1)N=O [NNK, 4-(methyl-nitrosamino)-1-(3-pyridyl)-1 butanone] | phenotypical changes characteristic of neoplastic transformation but at a slower rate, over several weeks | observed considerably less | within a week | cytotoxic changes consisting of poorly attached, degenerating, dying cells, and slowed cell growth |  | 
2 | O=P1(N(CCCl)CCCl)NCCCO1 (stereo not drawn) [cyclophosphamide] |  |  |  |  | strong immunosuppression | virtually no staining
